Tests used:
crabgrass = assay: Test B pre/postemergence crabgrass; assay type: in vivo, Digitaria sanguinalis
Summary of the method: (§1)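 Test chemicals in a non-phytotoxic solvent mixture with surfactant were sprayed preemergence onto planted seeds and postemergence onto plants 2 to 18 cm tall (1- to 4-leaf stage). After twelve to sixteen days in a greenhouse, injury was visually rated against untreated controls from 0 (no effect) to 10 (complete control).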

winter wheat [1] = assay: Test E winter wheat; assay type: in vivo, Triticum aestivum; settings: Preemergence
winter wheat [2] = assay: Test E winter wheat; assay type: in vivo, Triticum aestivum; settings: Postemergence
Summary of the method: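 For postemergence, sowings are timed so plants reach the 1- to 4-leaf stage at spraying. Test compound is applied in a surfactant-containing solvent mixture that is non-phytotoxic. Response is judged by eye against untreated controls after approximately 21 to 28 days.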

Johnson grass = assay: Test D Johnson grass; assay type: in vivo, Sorghum halepense; settings: Preemergence, 0 to 100 scale
Summary of the method: (§2)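 Greenhouse pots, seeds in sandy loam; compounds formulated in non-phytotoxic solvent with surfactant; preemergence treatments went on the soil surface within one day of planting. Injury rated visually 14 to 21 days after application on a 0 (none) to 100 (complete control) scale.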

blackgrass [3] = assay: Test E blackgrass; assay type: in vivo, Alopecurus myosuroides; settings: Preemergence
Italian ryegrass = assay: Test E Italian ryegrass; assay type: in vivo, Lolium multiflorum; settings: Preemergence
common pursiane = assay: Test D common purslane; assay type: in vivo, Portulaca oleracea
Summary of the method: as §2

wild oat = assay: Test E wild oat; assay type: in vivo, Avena fatua; settings: Preemergence
winter barley = assay: Test E winter barley; assay type: in vivo, Hordeum vulgare; settings: Preemergence
blackgrass [4] = assay: Test B pre/postemergence blackgrass; assay type: in vivo, Alopecurus myosuroides
Summary of the method: as §1

bamyardgrass = assay: Test B flood test barnyardgrass; assay type: in vivo, Echinochloa crus-galli
Summary of the method: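 Each value is a visual injury score relative to controls, with 10 meaning complete control and 0 no effect. Evaluation took place twelve to sixteen days after the 2-leaf-stage plants were treated and kept in the greenhouse.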

green foxtail = assay: Test E green foxtail; assay type: in vivo, Setaria viridis; settings: Preemergence
morningglory = assay: Test B pre/postemergence morningglory; assay type: in vivo, Ipomoea hederacea
Summary of the method: as §1

[5] = Postemergence, Rate 125 g/ha, scale of 0 to 10 where 0 is no effect and 10 is complete control
[6] = Postemergence, Rate 250 g/ha, scale 0 to 10, 0 no effect, 10 complete control
[7] = Preemergence, Rate 62 g/ha, scale 0 to 10 (0 no effect, 10 complete control)
[8] = Preemergence, Rate 125 g/ha, scale 0 to 10 (0 no effect, 10 complete control)
[9] = Preemergence, Rate 250 g/ha, scale of 0 to 10 where 0 is no effect and 10 is complete control
[10] = Preemergence, Rate 500 g/ha, scale 0 to 10 (0 no effect, 10 complete control)
[11] = Rate 62 g/ha, Postemergence, scale of 0 to 10 where 0 is no effect and 10 is complete control
[12] = Rate 500 g/ha, Postemergence, scale 0 to 10, 0 no effect, 10 complete control
[13] = Rate 31 g/ha, 0 to 100 scale, 0 no effect, 100 complete control
[14] = Rate 62 g/ha, 0 to 100 scale, 0 no effect, 100 complete control
[15] = Rate 125 g/ha, 0 to 100 scale (0 no effect, 100 complete control)

**Q.** Which “Crabgrass plant response rating” value (crabgrass; [5]) does the source give for `CCn1c(=O)on(C(=O)N(c2ccc(F)cc2)C(C)C)c1=O` [Compound 107] here?
**A.** Its value is 8.

**Q.** And the “Crabgrass plant response rating” value (crabgrass; [6])?
**A.** The value was 9.

**Q.** What about the “Crabgrass plant response rating” value (crabgrass; [7]) of the same compound?
**A.** Its value is 10.

**Q.** And the “Plant response rating, Crabgrass” value (crabgrass; [8])?
**A.** The value was 10.

**Q.** What about the “Plant response rating, Crabgrass” value (crabgrass; [9]) of the same compound?
**A.** The value was 10.

**Q.** And the “Crabgrass plant response rating” value (crabgrass; [10])?
**A.** Its value is 10.

**Q.** What about the “Crabgrass plant response rating” value (crabgrass; [11]) of the same compound?
**A.** The value was 8.

**Q.** And the “Crabgrass plant response rating” value (crabgrass; [12])?
**A.** Its value is 9.

**Q.** What about the “Plant response rating, Wheat (winter)” value (winter wheat [1]; [13]) of the same compound?
**A.** Its value is 0.

**Q.** And the “Plant response rating, Wheat (winter)” value (winter wheat [1]; [14])?
**A.** Its value is 50.

**Q.** What about the “Plant response rating, Wheat (winter)” value (winter wheat [1]; [15]) of the same compound?
**A.** The value was 30.

**Q.** What about the “Plant response rating, Wheat (winter)” value (winter wheat [1]; Rate 250 g/ha, 0 to 100 scale) of the same compound?
**A.** Its value is 40.

**Q.** And the “Plant response rating, Wheat (winter)” value (winter wheat [2]; [13])?
**A.** The value was 50.

**Q.** What about the “Plant response rating, Wheat (winter)” value (winter wheat [2]; Rate 62 g/ha, 0 to 100 scale) of the same compound?
**A.** The value was 40.

**Q.** What about the “Plant response rating, Wheat (winter)” value (winter wheat [2]; Rate 125 g/ha, 0 to 100 scale) of the same compound?
**A.** Its value is 30.

**Q.** And the “Plant response rating, Wheat (winter)” value (winter wheat [2]; Rate 250 g/ha, 0 to 100 scale (0 no effect, 100 complete control))?
**A.** The value was 0.

**Q.** What about the “Plant response rating Johnsongrass” value (Johnson grass; Rate 16 g/ha, 0 no injury, 100 complete control) of the same compound?
**A.** Its value is 20.

**Q.** What about the “Plant response rating Johnsongrass” value (Johnson grass; Rate 32 g/ha, 0 no injury, 100 complete control) of the same compound?
**A.** Its value is 85.

**Q.** And the “Plant response rating Johnsongrass” value (Johnson grass; Rate 64 g/ha, 0 no injury, 100 complete control)?
**A.** The value was 90.

**Q.** And the “Plant response rating Johnsongrass” value (Johnson grass; Rate 125 g/ha, 0 no injury, 100 complete control)?
**A.** Its value is 90.

**Q.** And the “Plant response rating Johnsongrass” value (Johnson grass; Rate 250 g/ha)?
**A.** Its value is 98.

**Q.** What about the “Plant response rating Johnsongrass” value (Johnson grass; Rate 500 g/ha) of the same compound?
**A.** The value was 100.

**Q.** What about the “Plant response rating, Blackgrass” value (blackgrass [3]; [13]) of the same compound?
**A.** The value was 30.

**Q.** What about the “Plant response rating, Blackgrass” value (blackgrass [3]; [14]) of the same compound?
**A.** The value was 60.

**Q.** And the “Plant response rating, Blackgrass” value (blackgrass [3]; [15])?
**A.** The value was 85.

**Q.** What about the “Plant response rating, Blackgrass” value (blackgrass [3]; Rate 250 g/ha, 0 to 100 scale) of the same compound?
**A.** Its value is 80.

**Q.** What about the “Plant response rating, I. Ryegrass” value (Italian ryegrass; [13]) of the same compound?
**A.** Its value is 40.

**Q.** And the “Plant response rating, I. Ryegrass” value (Italian ryegrass; [14])?
**A.** The value was 55.

**Q.** And the “Plant response rating, I. Ryegrass” value (Italian ryegrass; [15])?
**A.** Its value is 98.

**Q.** And the “Plant response rating, I. Ryegrass” value (Italian ryegrass; Rate 250 g/ha, 0 to 100 scale)?
**A.** Its value is 95.

**Q.** What about the “Plant response rating, C. purslane” value (common pursiane; Rate 16 g/ha; Preemergence; 0 to 100 scale, 0 no injury, 100 complete control) of the same compound?
**A.** Its value is 0.

**Q.** What about the “Plant response rating, C. purslane” value (common pursiane; Rate 32 g/ha; Preemergence; 0 to 100 scale, 0 no injury, 100 complete control) of the same compound?
**A.** The value was 0.

**Q.** What about the “Plant response rating, C. purslane” value (common pursiane; Rate 64 g/ha, Preemergence; 0 to 100 scale, 0 no injury, 100 complete control) of the same compound?
**A.** The value was 0.

**Q.** What about the “Plant response rating, C. purslane” value (common pursiane; Rate 125 g/ha, Preemergence; 0 to 100 scale, 0 no injury, 100 complete control) of the same compound?
**A.** The value was 0.

**Q.** And the “Plant response rating, C. purslane” value (common pursiane; Rate 250 g/ha; Preemergence; 0 to 100 scale)?
**A.** Its value is 0.

**Q.** What about the “Plant response rating, C. purslane” value (common pursiane; Rate 500 g/ha, Preemergence; 0 to 100 scale) of the same compound?
**A.** Its value is 100.

**Q.** And the “Plant response rating, C. purslane” value (common pursiane; Rate 500 g/ha; Preemergence; 0 to 100 scale)?
**A.** Its value is 0.

**Q.** What about the “Plant response rating, Wild oat” value (wild oat; [13]) of the same compound?
**A.** The value was 20.

**Q.** And the “Plant response rating, Wild oat” value (wild oat; [14])?
**A.** The value was 50.

**Q.** What about the “Plant response rating, Wild oat” value (wild oat; [15]) of the same compound?
**A.** The value was 60.

**Q.** And the “Plant response rating, Barley (winter)” value (winter barley; [13])?
**A.** The value was 10.

**Q.** And the “Plant response rating, Barley (winter)” value (winter barley; [14])?
**A.** The value was 20.

**Q.** And the “Plant response rating, Barley (winter)” value (winter barley; [15])?
**A.** The value was 20.

**Q.** And the “Plant response rating, Barley (winter)” value (winter barley; Rate 250 g/ha, 0 to 100 scale)?
**A.** The value was 15.

**Q.** And the “Blackgrass plant response rating” value (blackgrass [4]; [5])?
**A.** Its value is 7.

**Q.** And the “Blackgrass plant response rating” value (blackgrass [4]; [6])?
**A.** The value was 8.

**Q.** What about the “Blackgrass plant response rating” value (blackgrass [4]; [7]) of the same compound?
**A.** Its value is 9.

**Q.** What about the “Plant response rating, Blackgrass” value (blackgrass [4]; [8]) of the same compound?
**A.** The value was 10.

**Q.** And the “Plant response rating, Blackgrass” value (blackgrass [4]; [9])?
**A.** The value was 10.

**Q.** What about the “Blackgrass plant response rating” value (blackgrass [4]; [10]) of the same compound?
**A.** Its value is 10.

**Q.** What about the “Blackgrass plant response rating” value (blackgrass [4]; [11]) of the same compound?
**A.** Its value is 7.

**Q.** What about the “Blackgrass plant response rating” value (blackgrass [4]; [12]) of the same compound?
**A.** The value was 8.

**Q.** What about the “Barnyardgrass plant response rating” value (bamyardgrass; Rate 250 g/ha, headed Pre-emergence (flood test species), scale 0 to 10 (0 no effect, 10 complete control)) of the same compound?
**A.** Its value is 0.

**Q.** What about the “Plant response rating, Barnyardgrass” value (bamyardgrass; Rate 500 g/ha, headed Pre-emergence (flood test species), scale 0 to 10 (0 no effect, 10 complete control)) of the same compound?
**A.** Its value is 0.

**Q.** And the “Barnyardgrass plant response rating” value (bamyardgrass; Rate 1000 g/ha, Pre-emergence (as headed), scale 0 to 10)?
**A.** The value was 0.

**Q.** And the “Barnyardgrass plant response rating” value (bamyardgrass; Rate 2000 g/ha, Pre-emergence (as headed), scale 0 to 10, 0 no effect, 10 complete control)?
**A.** Its value is 0.

**Q.** What about the “Plant response rating, Green foxtail” value (green foxtail; [13]) of the same compound?
**A.** Its value is 55.

**Q.** And the “Plant response rating, Green foxtail” value (green foxtail; [14])?
**A.** Its value is 80.

**Q.** What about the “Plant response rating, Green foxtail” value (green foxtail; [15]) of the same compound?
**A.** Its value is 100.

**Q.** And the “Plant response rating, Green foxtail” value (green foxtail; Rate 250 g/ha, 0 to 100 scale)?
**A.** Its value is 95.

**Q.** What about the “Morningglory plant response rating” value (morningglory; [5]) of the same compound?
**A.** The value was 3.

**Q.** What about the “Morningglory plant response rating” value (morningglory; [6]) of the same compound?
**A.** The value was 3.

**Q.** What about the “Morningglory plant response rating” value (morningglory; [7]) of the same compound?
**A.** The value was 0.

**Q.** What about the “Plant response rating, Morningglory” value (morningglory; [8]) of the same compound?
**A.** Its value is 0.

**Q.** What about the “Plant response rating, Morningglory” value (morningglory; [9]) of the same compound?
**A.** Its value is 2.

**Q.** What about the “Morningglory plant response rating” value (morningglory; [10]) of the same compound?
**A.** Its value is 7.

**Q.** What about the “Morningglory plant response rating” value (morningglory; [11]) of the same compound?
**A.** Its value is 3.

**Q.** And the “Morningglory plant response rating” value (morningglory; [12])?
**A.** The value was 3.

Reference: patent US6737383B1, “Herbicidal oxadiazolidines” (priority 1999, dated 2004)
